The values that follow come from patent US20030044875A1, “Substrate for PP2C” (Schering AG, priority 2001, published 2003).

For one assay, the target named is T1, PP2Cβ (Bos taurus, UniProt O62830).
T1 construct: inferred from the Ni-NTA purification; made in house; host or cells: E. coli
T1 sequence (O62830 1-484): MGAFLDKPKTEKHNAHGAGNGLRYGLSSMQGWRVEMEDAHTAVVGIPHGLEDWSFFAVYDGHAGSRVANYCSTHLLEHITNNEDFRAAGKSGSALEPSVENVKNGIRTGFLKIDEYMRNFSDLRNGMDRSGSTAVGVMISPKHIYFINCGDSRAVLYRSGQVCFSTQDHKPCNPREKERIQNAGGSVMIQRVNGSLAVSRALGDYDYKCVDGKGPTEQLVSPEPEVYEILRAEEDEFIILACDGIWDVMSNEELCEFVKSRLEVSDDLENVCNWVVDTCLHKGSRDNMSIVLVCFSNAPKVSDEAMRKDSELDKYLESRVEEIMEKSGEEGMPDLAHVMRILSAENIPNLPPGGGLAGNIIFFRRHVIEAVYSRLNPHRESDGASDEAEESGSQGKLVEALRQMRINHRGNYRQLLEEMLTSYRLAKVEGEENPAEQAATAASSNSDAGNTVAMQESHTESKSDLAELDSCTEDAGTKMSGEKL
As to the kind of experiment: Dephosphorylation of phospho-BAD by PP2Cβ, Mg2+-dependence. It is filed as biochemical, bovine. The protocol:
Dephosphorylation of phospho-BAD by PP2C is assayed in vitro using recombinant BAD (Lizcano, J. M., Morrice, N. and Cohen, P. (2000) Regulation of Bad by cAMP-dependent protein kinase is mediated via phosphorylation of a novel site, Ser^155. Biochem. J. Vol: 349, 547-557) kindly provided by Sir Philip Cohen, Dundee, UK. cDNA encoding PP2Cβ from bovine brain was expressed in E. Coli and purified using Ni-NTA-Sepharose. (J. Neurosci. Res. 51, 328-338 (1998) Protein phosphatase type-2C isozymes present in vertebrate retinae: purification, characterization, and localization in photoreceptors.)
Incubations were carried out for 30 min at 37° C. The reaction mixture (12 μl) contained 12 μg BAD (GST-fusion protein) (Lizcano et al. (2000) Biochem. J. 349, 547-557), 0.55 μg PKA (Sigma), 1 μM ATP, 15 μCi [γ-^32P]ATP, 5 mM MgCl2 and 25 mM Tris/HCl pH 7.5. After incubation at 37° C. for 30 min, hot and cold ATP were removed by centrisep centrifugation columns. […]
Dephosphorylation of [^32P]BAD depends on the time of incubating PP2Cβ together with the substrate phospho-BAD which is cleaved to give phosphate and BAD. The concentration of [^32P]BAD is measured in this assay, therefore intensive spots on the X-ray sensitive film represent high concentrations of [^32P]BAD, in other words low activity of the enzyme PP2Cβ.

In a further assay the test system is PP2C. Conditions: cited from earlier work.

“Also recorded” adds a separate entry of the source.

Take `[Mg+2]` [Mg^2+]: the “Effect of Mg2+ ions on enzymatic activity of PP2C (dephosphorylation of BAD)” value on PP2Cβ is given as “requires the presence of Mg^2+-ions; also recorded: increases the enzymatic activity”.
For the compound `C=C1[C@@H](O)[C@@H]2O[C@]3(CC[C@H](/C=C/[C@@H](C)[C@@H]4CC(C)=C[C@@]5(O[C@H](C[C@@](C)(O)C(=O)O)CC[C@H]5O)O4)O3)CC[C@H]2O[C@@H]1[C@@H](O)C[C@H](C)[C@H]1O[C@@]2(CCCCO2)CC[C@H]1C` [okadaic acid], the “Sensitivity of PP2C activity to inhibitor” value with PP2C is “not sensitive”.
